Reference: patent US20100115832A1, “MOISTURIZING AGENT WITH NUTRIENTS” (priority 2006, published 2010)

Conditions: research at the DRiWATER lab

effect on gel degradation in soil: will slow gel degradation in soil
SMILES: CC(=O)O [acetic acid]
